Measured values as given in patent US20030176390A1, “Methods of treating insulin resistance syndrome and diabetes” (priority 2001, published 2003).
Like-named read-outs stand apart in the source and are kept apart here.

Tests used:
rat adipocytes = assay: In vitro lipolysis assay (antilipolytic activity in rat adipocytes); assay type: cell-based; conditions: norepinephrine-stimulated lipolysis, glycerol assayed, 60 min, read-out: Lipo ec50
Method: Determination of Antilipolytic Activity in Rat Adipocytes
Isolation of Adipocytes from Epididymal Fat Pads
Adipose tissue is removed from anesthetized rats and rinsed twice in incubation medium (2.09 g sodium bicarbonate and 0.04 g EDTA, disodium salt, in 1 L Krebs buffer). Each rat (300-350 g) yields approximately 4 mL of adipose tissue. The adipose tissue (35 mL) is cut into small pieces with scissors and washed with incubation medium (50 mL). The mixture is poured into the barrel of a 50 mL syringe to which is attached a short piece of clamped tubing instead of a needle. The aqueous phase is allowed to drain. A second wash with incubation medium is passed through the syringe. The tissue is added to 50 mL of collagenase solution (collagenase (90 mg), bovine serum albumin (BSA) (500 mg), and 0.1 M calcium chloride solution (1 mL), in incubation medium (50 mL)) in a 1 L bottle. The mixture is shaken in an environmental at 37° C. for about 60 minutes under an atmosphere of 95% oxygen/5% carbon dioxide to effect digestion of the tissue. The dispersed cells are poured through 2 layers of cheese cloth into a 100 mL plastic beaker. The undigested clumps in the cloth are rinsed once with incubation medium (20 mL). The cells in the beaker are centrifuged in 2 plastic tubes for 30 seconds at room temperature at 300 rpm. The aqueous phase is aspirated from beneath the loosely packed layer of floating fat cells and discarded. The adipocytes are gently poured into a 250 mL plastic beaker containing 100 mL of rinse solution (1 g BSA per 100 mL incubation medium). After gentle stirring the centrifugation step is repeated. Another wash with rinse solution follows. The cells are pooled and their volume is estimated with a graduated cylinder. The adipocytes are diluted in twice their volume of assay buffer (incubation medium (120 mL), BSA (1.2 g), pyruvic acid (13 mg)).
The assay is performed in 20 mL plastic scintillation vials and the total assay volume is 4.2 mL. Assay buffer (2.5 mL), diluted adipocytes (1.5 mL), and a solution of the compound to be tested (12.3 μL) adenosine agonist (12.3 μl; varying concentration) is incubated in the environmental shaker for 15 minutes, then the reaction is started with norepinephrine solution (41.2 μL) (10 nM, in a carrier solution containing water (100 mL), BSA (4 mg), and 0.1 M EDTA (20 μL))and adenosine deaminase (1 μg/mL, 41.2 μl). After sixty minutes in the shaker the reaction is terminated by putting the vials on ice. […] The hard lipid layer is removed by aspiration and the aqueous layer is assayed for glycerol (400 μl of sample). The positive control is done in the absence of any adenosine agonist, substituting water in place of the solution to be tested.

[1] = Rattus norvegicus, Adipocyte, 1 h

EC50 (rat adipocytes; [1])	melting point	EC50 (rat adipocytes)	Structure (SMILES)
3.57 nM	110 to 111 °C	–	OC[C@H]1C[C@@H](n2cnc3c(N[C@H]4CCN(c5ccc(C(F)(F)F)cn5)C4)ncnc32)[C@H](O)[C@@H]1O [Example 29, (1R,2S,3R,5R)-5-hydroxymethyl-3-[6-[1-(5-trifluoromethylpyridin-2-yl)pyrrolidin-3(S)-ylamino]-purin-9-yl]cyclopentane-1,2-diol]
48 nM	110 to 112 °C	–	OC[C@H]1C[C@@H](n2cnc3c(N[C@H]4CCN(c5ccccn5)C4)ncnc32)[C@H](O)[C@@H]1O [Example 35, (1R,2S,3R,5R)-5-hydroxymethyl-3-[6-[1-(pyridin-2-yl)pyrrolidin-3(S)-ylamino]-purin-9-yl]cyclopentane-1,2-diol]
2.4 nM	127 to 130 °C	–	COC[C@H]1C[C@@H](n2cnc3c(N[C@H]4CCN(c5cccc(Cl)c5)C4)ncnc32)[C@H](O)[C@@H]1O [Example 56, (1R,2S,3R,5R)-3-[6-[1-(3-chlorophenyl)-pyrrolidin-3(S)-ylamino]-purin-9-yl]-5-methoxymethylcyclopentane-1,2-diol]
1.37 nM	251 to 253 °C	–	COc1cc(N2CC[C@H](Nc3ncnc4c3ncn4[C@@H]3O[C@H](CO)[C@@H](O)[C@H]3O)C2)ncn1 [Example 20, (2R,3R,4S,5R)-5-hydroxymethyl-2-[6-[1-(6-methoxypyrimidin-4-yl)pyrrolidin-3(S)-ylamino]-purin-9-yl]tetrahydrofuran-3,4-diol]
3.3 nM	135 to 137 °C	–	OC[C@H]1C[C@@H](n2cnc3c(N[C@H]4CCN(c5cc(C(F)(F)F)ccn5)C4)ncnc32)[C@H](O)[C@@H]1O [Example 34, (1R,2S,3R,5R)-5-hydroxymethyl-3-[6-[1-(4-trifluoromethylpyridin-2-yl)pyrrolidin-3(S)-ylamino]-purin-9-yl]cyclopentane-1,2-diol]
3.3 nM	122 to 125 °C	–	COC[C@H]1C[C@@H](n2cnc3c(N[C@H]4CCN(c5ccc(Cl)cc5)C4)ncnc32)[C@H](O)[C@@H]1O [Example 55, (1R,2S,3R,5R)-3-[6-[1-(4-chlorophenyl)-pyrrolidin-3(S)-ylamino]-purin-9-yl]-5-methoxymethylcyclopentane-1,2-diol]
8 nM	169 to 171 °C	–	OC[C@H]1C[C@@H](n2cnc3c(N[C@H]4CCN(c5ccc(Br)cn5)C4)ncnc32)[C@H](O)[C@@H]1O [Example 32, (1R,2S,3R,5R)-3-[6-[1-(5-bromopyridin-2-yl)pyrrolidin-3(S)-ylamino]-purin-9-yl]-5-hydroxymethylcyclopentane-1,2-diol]
2 nM	111 to 114 °C	–	OC[C@H]1C[C@@H](n2cnc3c(N[C@H]4CCN(c5ccc(C(F)(F)F)cc5)C4)ncnc32)[C@H](O)[C@@H]1O [Example 5, (1R,2S,3R,5R)-3-[6-[1-(4-trifluoromethylphenyl)-pyrrolidin-3(S)-ylamino]-purin-9-yl]-5-hydroxymethylcyclopentane-1,2-diol]
30 nM	–	–	OC[C@H]1C[C@@H](n2cnc3c(N[C@H]4CCN(c5ccc6cc(Br)ccc6n5)C4)ncnc32)[C@H](O)[C@@H]1O [Example 42, (1R,2S,3R,5R)-3-[6-[1-(6-bromoquinolin-2-yl)pyrrolidin-3(S)-ylamino]-purin-9-yl]-5-hydroxymethylcyclopentane-1,2-diol]
–	–	18.6 nM	COC[C@H]1C[C@@H](n2cnc3c(N[C@H]4CCN(c5ccc(Cl)cn5)C4)ncnc32)[C@H](O)[C@@H]1O [Example 53, (1R,2S,3R,5R)-3-[6-[1-(5-chlorpyridin-2-yl)pyrrolidin-3(S)-ylamino]-purin-9-yl]-5-methoxymethylcyclopentane-1,2-diol]
2.24 nM	–	–	OC[C@H]1O[C@@H](n2cnc3c(N[C@H]4CCN(c5ccc(-c6cccs6)cn5)C4)ncnc32)[C@H](O)[C@@H]1O [Example 18, (2R,3R,4S,5R)-5-hydroxymethyl-2-[6-[1-(5-thiophen-2-ylpyridin-2-yl)-pyrrolidin-3(S)-ylamino]-purin-9-yl]tetrahydrofuran-3,4-diol]
129 nM	–	–	OC[C@H]1C[C@@H](n2cnc3c(N[C@H]4CCN(c5ccc(Cl)nn5)C4)ncnc32)[C@H](O)[C@@H]1O [Example 47, (1R,2S,3R,5R)-3-[6-[1-(6-chloropyridazin-3-yl)pyrrolidin-3(S)-ylamino]-purin-9-yl]-5-hydroxymethylcyclopentane-1,2-diol]
–	–	10.9 nM	CC(C)NC(=O)[C@H]1C[C@@H](n2cnc3c(N[C@H]4CCN(c5cc(C(F)(F)F)ccn5)C4)ncnc32)[C@H](O)[C@@H]1O [Example 2, (1S,2R,3S,4R)-2,3-dihydroxy-4-[6-[1-(4-trifluormethylpyridin-2-yl)pyrrolidin-3(S)-ylamino]purin-9-yl]cyclopentanecarboxylic acid isopropylamide]
92.5 nM	–	–	COC[C@H]1C[C@@H](n2cnc3c(N[C@H]4CCN(c5cc(Cl)ncn5)C4)ncnc32)[C@H](O)[C@@H]1O [Example 46, (1R,2S,3R,5R)-3-[6-[1-(6-chloropyrimidin-4-yl)pyrrolidin-3(S)-ylamino]-purin-9-yl]-5-methoxymethylcyclopentane-1,2-diol]
2.82 nM	–	–	O=[N+]([O-])c1ccc(N2CCC(Nc3ncnc4c3ncn4[C@@H]3C[C@H](CO)[C@@H](O)[C@H]3O)C2)cc1 (stereo partly drawn) [Example 7, (1R,2S,3R,5R)-5-hydroxymethyl-3-[6-[1-(4-nitrophenyl)pyrrolidin-3-ylamino]-purin-9-yl]cyclopentane-1,2-diol]
2.8 nM	–	–	O=[N+]([O-])c1ccc(N2CC[C@H](Nc3ncnc4c3ncn4[C@@H]3C[C@H](CO)[C@@H](O)[C@H]3O)C2)cc1 [Example 37, (1R,2S,3R,5R)-5-hydroxymethyl-3-[6-[1-(4-nitrophenyl)-pyrrolidin-3(S)-ylamino]-purin-9-yl]cyclopentane-1,2-diol]
365 nM	–	–	CC(C)OC[C@H]1C[C@@H](n2cnc3c(N[C@H]4CCN(c5cc(C(F)(F)F)ccn5)C4)ncnc32)[C@H](O)[C@@H]1O [Example 50, (1R,2S,3R,5R)-5-isopropoxymethyl-3-[6-[1-(4-trifluoromethylpyridin2-yl)pyrrolidin-3(S)-ylamino]-purin-9-yl]cyclopentane-1,2-diol]
–	–	114 nM	OC[C@H]1C[C@@H](n2cnc3c(N[C@H]4CCN(c5cc(C(F)(F)F)c(C(F)(F)F)cn5)C4)ncnc32)[C@H](O)[C@@H]1O [Example 38, (1R,2S,3R,5R)-3-[6-[1-(4,5-bistrifluorpyridin-2-yl)pyrrolidin-3(S)-ylamino]-purin-9-yl]-5-hydroxymethylcyclopentane-1,2-diol]
2.43 nM	–	–	OC[C@H]1O[C@@H](n2cnc3c(N[C@H]4CCN(c5cc(Cl)ncn5)C4)ncnc32)[C@H](O)[C@@H]1O [Example 21, (2R,3R,4S,5R)-5-hydroxymethyl-2-[6-[1-(6-chloropyrimidin-4-yl)pyrrolidin-3(S)-ylamino]-purin-9-yl]-tetrahydrofuran-3,4-diol]

Structure (SMILES)	EC50 (rat adipocytes; [1])	melting point	EC50 (rat adipocytes)
O=C1C[C@H](Nc2ncnc3c2ncn3[C@@H]2C[C@H](CO)[C@@H](O)[C@H]2O)CN1Cc1ccccc1 [Example 6, 4(S)-1-benzyl-4-[9-((1R,2S,3R,5R)-1,2-dihydroxy-5-hydroxymethylcyclopent-3-yl)-9H-purin-6-ylamino]pyrrolidin-2-one]	–	–	267 nM
